Results reported in publication PMC8640094, “Diaportones A–C: Three New Metabolites From Endophytic Fungus Diaporthe foeniculina BZM-15” (Frontiers in Chemistry, 2021).

Legend:
normal cell line LX-2 = assay: MTT cytotoxicity assay, normal cell line LX-2; assay type: cell-based; conditions: for inhibition at 1 µM / inhibition at 2 µM / inhibition at 4 µM / inhibition at 8 µM / inhibition at 16 µM / inhibition at 32 µM / inhibition at 64 µM / inhibition at 128 µM / IC50: 72 h; for inhibition at 1 µM: LX-2, c 1.00 μM; for inhibition at 1 µM / inhibition at 2 µM / inhibition at 4 µM / inhibition at 8 µM / inhibition at 16 µM / inhibition at 32 µM / inhibition at 64 µM / inhibition at 128 µM: three replicates; for inhibition at 2 µM: LX-2, c 2.00 μM; for inhibition at 4 µM: LX-2, c 4.00 μM; for inhibition at 8 µM: LX-2, c 8.00 μM; for inhibition at 16 µM: LX-2, c 16.00 μM; for inhibition at 32 µM: LX-2, c 32.00 μM; for inhibition at 64 µM: LX-2, c 64.00 μM; for inhibition at 128 µM: LX-2, c 128.00 μM; for IC50: MTT, mean ± SD (n = 3)
Procedure: (§1) The cytotoxicity of all compounds against three human tumor cell lines, SF-268 (CNS cancer), MCF-7 (breast cancer), and HepG2 (hepatoma cancer), and normal cell line LX-2 was tested using the MTT assay. […] All cells were seeded into 96-well plates at 5 × 10^4 cells/ml and incubated at 37°C under a 5% CO2 atmosphere for 24 h. Then, the tested compounds were added. After 72 h, MTT solution was added into each well, which was further incubated. The cell-free supernatant was removed and formazan crystals were subsequently dissolved in DMSO. Optical density (OD) was recorded at 490 nm on a microplate reader to calculate the IC50 values.

MCF-7 (breast cancer) = assay: MTT cytotoxicity assay, MCF-7 cells; assay type: cell-based, human; conditions: Homo sapiens; for inhibition at 1 µM / inhibition at 2 µM / inhibition at 4 µM / inhibition at 8 µM / inhibition at 16 µM / inhibition at 32 µM / inhibition at 64 µM / inhibition at 128 µM: MCF7, 72 h, three replicates, read-out: cell inhibition; for inhibition at 1 µM: MCF-7, c 1.00 μM; for inhibition at 2 µM: MCF-7, c 2.00 μM; for inhibition at 4 µM: MCF-7, c 4.00 μM; for inhibition at 8 µM: MCF-7, c 8.00 μM; for inhibition at 16 µM: MCF-7, c 16.00 μM; for inhibition at 32 µM: MCF-7, c 32.00 μM; for inhibition at 64 µM: MCF-7, c 64.00 μM; for inhibition at 128 µM: MCF-7, c 128.00 μM; for IC50: MCF7, MTT, 72 h, mean ± SD (n = 3)
Procedure: as §1

SF-268 (CNS cancer) = assay: MTT cytotoxicity assay, SF-268 cells; assay type: cell-based, human; conditions: Homo sapiens; for inhibition at 1 µM / inhibition at 2 µM / inhibition at 4 µM / inhibition at 8 µM / inhibition at 16 µM / inhibition at 32 µM / inhibition at 64 µM / inhibition at 128 µM: SF-268, 72 h, SF268 cells, triplicate values, read-out: cell inhibition; for inhibition at 1 µM: c 1.00 μM; for inhibition at 2 µM: c 2.00 μM; for inhibition at 4 µM: c 4.00 μM; for inhibition at 8 µM: c 8.00 μM; for inhibition at 16 µM: c 16.00 μM; for inhibition at 32 µM: c 32.00 μM; for inhibition at 64 µM: c 64.00 μM; for inhibition at 128 µM: c 128.00 μM; for IC50: SF-268, MTT, 72 h, mean ± SD (n = 3), read-out: IC50 SF268
Procedure: (§2) The cytotoxicity of all compounds against three human tumor cell lines, SF-268 (CNS cancer), MCF-7 (breast cancer), and HepG2 (hepatoma cancer), and normal cell line LX-2 was tested using the MTT assay. Adriamycin was used as a positive control. All cells were seeded into 96-well plates at 5 × 10^4 cells/ml and incubated at 37°C under a 5% CO2 atmosphere for 24 h. Then, the tested compounds were added. After 72 h, MTT solution was added into each well, which was further incubated. The cell-free supernatant was removed and formazan crystals were subsequently dissolved in DMSO. Optical density (OD) was recorded at 490 nm on a microplate reader to calculate the IC50 values.

HepG2 (hepatoma cancer) = assay: MTT cytotoxicity assay, HepG2 cells; assay type: cell-based, human; conditions: Homo sapiens; for inhibition at 1 µM / inhibition at 2 µM / inhibition at 4 µM / inhibition at 8 µM / inhibition at 16 µM / inhibition at 32 µM / inhibition at 64 µM / inhibition at 128 µM: HepG2, 72 h, three replicates, read-out: cell inhibition; for inhibition at 1 µM: HepG2, c 1.00 μM; for inhibition at 2 µM: HepG2, c 2.00 μM; for inhibition at 4 µM: HepG2, c 4.00 μM; for inhibition at 8 µM: HepG2, c 8.00 μM; for inhibition at 16 µM: HepG2, c 16.00 μM; for inhibition at 32 µM: HepG2, c 32.00 μM; for inhibition at 64 µM: HepG2, c 64.00 μM; for inhibition at 128 µM: HepG2, c 128.00 μM; for IC50: HepG2, MTT, 72 h, mean ± SD (n = 3)
Procedure: as §2

[1] = tested on: three human cancer cell lines (SF-268, MCF-7, and HepG2); assay: MTT cytotoxicity, summary over three human cancer cell lines; assay type: cell-based
Procedure: as §2

SMILES	inhibition at 1 µM (normal cell line LX-2) [%]	inhibition at 2 µM (normal cell line LX-2) [%]	inhibition at 4 µM (normal cell line LX-2) [%]	inhibition at 8 µM (normal cell line LX-2) [%]	inhibition at 16 µM (normal cell line LX-2) [%]	inhibition at 32 µM (normal cell line LX-2) [%]	inhibition at 64 µM (normal cell line LX-2) [%]	inhibition at 128 µM (normal cell line LX-2) [%]	IC50 (normal cell line LX-2) [µM]	inhibition at 1 µM (MCF-7 (breast cancer)) [%]	inhibition at 2 µM (MCF-7 (breast cancer)) [%]	inhibition at 4 µM (MCF-7 (breast cancer)) [%]	inhibition at 8 µM (MCF-7 (breast cancer)) [%]	inhibition at 16 µM (MCF-7 (breast cancer)) [%]	inhibition at 32 µM (MCF-7 (breast cancer)) [%]	inhibition at 64 µM (MCF-7 (breast cancer)) [%]	inhibition at 128 µM (MCF-7 (breast cancer)) [%]	IC50 (MCF-7 (breast cancer)) [µM]	inhibition at 1 µM (SF-268 (CNS cancer)) [%]	inhibition at 2 µM (SF-268 (CNS cancer)) [%]	other results
CCCC(O)C1=C(C)C(=O)C(C)C1 (stereo not drawn) [compound 3, diaportone B]	6.32	5.31	11.4	20.6	28.3	34.8	50.5	70.2	> 40	8.01	13.3	14.8	21.4	30.5	41.4	62.7	76.1	> 40	6.32	12	inhibition at 4 µM (SF-268 (CNS cancer)): 19.4%; inhibition at 8 µM (SF-268 (CNS cancer)): 21.4%; inhibition at 16 µM (SF-268 (CNS cancer)): 27.3%; inhibition at 32 µM (SF-268 (CNS cancer)): 28.5%; inhibition at 64 µM (SF-268 (CNS cancer)): 34.1%; inhibition at 128 µM (SF-268 (CNS cancer)): 59.4%; IC50 (SF-268 (CNS cancer)): > 40 µM; inhibition at 1 µM (HepG2 (hepatoma cancer)): 8.12%; inhibition at 2 µM (HepG2 (hepatoma cancer)): 14.3%; inhibition at 4 µM (HepG2 (hepatoma cancer)): 19.2%; inhibition at 8 µM (HepG2 (hepatoma cancer)): 25.3%; inhibition at 16 µM (HepG2 (hepatoma cancer)): 30.6%; inhibition at 32 µM (HepG2 (hepatoma cancer)): 42.1%; inhibition at 64 µM (HepG2 (hepatoma cancer)): 54.8%; inhibition at 128 µM (HepG2 (hepatoma cancer)): 75.3%; IC50 (HepG2 (hepatoma cancer)): > 40 µM
CCCC(O)C1=C(C)C(=O)CC1C (stereo not drawn) [compound 4, phomotenone]	7.34	9.3	12	18.1	24.6	41.1	70	87.1	> 40	3.45	7.63	13.1	20.4	27.3	36.1	50.6	72.2	> 40	5.57	8.31	inhibition at 4 µM (SF-268 (CNS cancer)): 7.46%; inhibition at 8 µM (SF-268 (CNS cancer)): 13.1%; inhibition at 16 µM (SF-268 (CNS cancer)): 23.8%; inhibition at 32 µM (SF-268 (CNS cancer)): 46.7%; inhibition at 64 µM (SF-268 (CNS cancer)): 74.3%; inhibition at 128 µM (SF-268 (CNS cancer)): 82.1%; IC50 (SF-268 (CNS cancer)): > 40 µM; inhibition at 1 µM (HepG2 (hepatoma cancer)): 6.5%; inhibition at 2 µM (HepG2 (hepatoma cancer)): 7.63%; inhibition at 4 µM (HepG2 (hepatoma cancer)): 14.3%; inhibition at 8 µM (HepG2 (hepatoma cancer)): 20.2%; inhibition at 16 µM (HepG2 (hepatoma cancer)): 31.4%; inhibition at 32 µM (HepG2 (hepatoma cancer)): 37.3%; inhibition at 64 µM (HepG2 (hepatoma cancer)): 54.7%; inhibition at 128 µM (HepG2 (hepatoma cancer)): 73%; IC50 (HepG2 (hepatoma cancer)): > 40 µM
CC1(O)CC2OC23C(C)(C)C(Cl)CCC3(C)C1C(=O)O (stereo not drawn) [compound 6, altiloxin B]	8.12	11.8	15.9	26.5	31.3	40.5	65	73.5	> 40	1.37	4.01	8.56	13	18.9	24.3	59.3	66.4	> 40	3.44	5.06	inhibition at 4 µM (SF-268 (CNS cancer)): 7.23%; inhibition at 8 µM (SF-268 (CNS cancer)): 9.25%; inhibition at 16 µM (SF-268 (CNS cancer)): 12.9%; inhibition at 32 µM (SF-268 (CNS cancer)): 22.6%; inhibition at 64 µM (SF-268 (CNS cancer)): 49.5%; inhibition at 128 µM (SF-268 (CNS cancer)): 60.3%; IC50 (SF-268 (CNS cancer)): > 40 µM; inhibition at 1 µM (HepG2 (hepatoma cancer)): 1.37%; inhibition at 2 µM (HepG2 (hepatoma cancer)): 5.78%; inhibition at 4 µM (HepG2 (hepatoma cancer)): 10.6%; inhibition at 8 µM (HepG2 (hepatoma cancer)): 14.6%; inhibition at 16 µM (HepG2 (hepatoma cancer)): 19.5%; inhibition at 32 µM (HepG2 (hepatoma cancer)): 26.6%; inhibition at 64 µM (HepG2 (hepatoma cancer)): 63.3%; inhibition at 128 µM (HepG2 (hepatoma cancer)): 79.7%; IC50 (HepG2 (hepatoma cancer)): > 40 µM
CC(C)[C@@H](C)/C=C/[C@@H](C)[C@H]1CCC(=O)[C@]23CC(=O)C4=CC(=O)CC[C@]4(C)[C@H]2CC[C@]13C [compound 7, dankasterone A]	14.7	18.4	26.4	31.4	33.1	43.2	81.3	92.6	> 40	35.5	47.2	64.9	72.1	81	98.2	97.5	98.3	3.6 ± 1.1	16.3	31.1	activity on the normal cell line LX-2 (normal cell line LX-2; in words): not active; cell inhibition against three human cancer cell lines, in words [1]: good cell inhibition; IC50 ([1]; Homo sapiens, read-out: IC50 values, range over three cell lines): 3.6 to 15.8 µM; inhibition at 4 µM (SF-268 (CNS cancer)): 46.5%; inhibition at 8 µM (SF-268 (CNS cancer)): 58.4%; inhibition at 16 µM (SF-268 (CNS cancer)): 69.7%; inhibition at 32 µM (SF-268 (CNS cancer)): 90.9%; inhibition at 64 µM (SF-268 (CNS cancer)): 96.1%; inhibition at 128 µM (SF-268 (CNS cancer)): 99.2%; IC50 (SF-268 (CNS cancer)): 6.7 ± 0.7 µM; inhibition at 1 µM (HepG2 (hepatoma cancer)): 31.1%; inhibition at 2 µM (HepG2 (hepatoma cancer)): 39.6%; inhibition at 4 µM (HepG2 (hepatoma cancer)): 49%; inhibition at 8 µM (HepG2 (hepatoma cancer)): 76.9%; inhibition at 16 µM (HepG2 (hepatoma cancer)): 83.3%; inhibition at 32 µM (HepG2 (hepatoma cancer)): 98%; inhibition at 64 µM (HepG2 (hepatoma cancer)): 99%; inhibition at 128 µM (HepG2 (hepatoma cancer)): 98.5%; IC50 (HepG2 (hepatoma cancer)): 4.9 ± 0.9 µM
CC(C)[C@@H](C)/C=C/[C@@H](C)C1CCC2C3=CC(=O)OC4=CC(=O)CC[C@]4(C)C3CC[C@@]21C (stereo partly drawn) [compound 9, fortisterol]	9.02	13.6	18.5	25.5	31.9	44.7	79.3	82.5	> 40	6.87	14.1	17.4	21.5	31.4	43.2	76.1	86.4	> 40	8.97	14.6	inhibition at 4 µM (SF-268 (CNS cancer)): 19.2%; inhibition at 8 µM (SF-268 (CNS cancer)): 24.9%; inhibition at 16 µM (SF-268 (CNS cancer)): 30.3%; inhibition at 32 µM (SF-268 (CNS cancer)): 45.1%; inhibition at 64 µM (SF-268 (CNS cancer)): 80.5%; inhibition at 128 µM (SF-268 (CNS cancer)): 82.4%; IC50 (SF-268 (CNS cancer)): > 40 µM; inhibition at 1 µM (HepG2 (hepatoma cancer)): 5.37%; inhibition at 2 µM (HepG2 (hepatoma cancer)): 11.1%; inhibition at 4 µM (HepG2 (hepatoma cancer)): 15.3%; inhibition at 8 µM (HepG2 (hepatoma cancer)): 20.5%; inhibition at 16 µM (HepG2 (hepatoma cancer)): 31.6%; inhibition at 32 µM (HepG2 (hepatoma cancer)): 48.2%; inhibition at 64 µM (HepG2 (hepatoma cancer)): 75.7%; inhibition at 128 µM (HepG2 (hepatoma cancer)): 89.3%; IC50 (HepG2 (hepatoma cancer)): > 40 µM
